Reference: patent US11684614B2, “Formulations of hydroxypyridonate actinide/lanthanide decorporation agents” (priority 2017, dated 2023)
“And” between values parts separate entries of the source, which are not always exact repeats. Equal values may be shown once.

Assay: Repeated-treatment efficacy for removing an intravenous dose of 238Pu (excretion, tissue retention, clinical observations), female and male arms;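 for % Recovered Dose - ART: ART is abdominal tissue remainder with GI tract reproductive organs spleen bladder fat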
Type: in vivo, Swiss-Webster mice
Procedure: The objective of this study was to characterize the efficacy of 3,4,3-L1(1,2-HOPO) at enhancing elimination from an internal plutonium burden in female and male Swiss-Webster mice administered a soluble citrate complex of ^238Pu and treated multiple times, starting at 24 hours after the exposure. Efficacy was evaluated by comparing the tissue contents, urinary and fecal excretions of ^238Pu in treated animals versus untreated animals.
The medical countermeasure 3,4,3-L1(1,2-HOPO) was administered parenterally (ip) or orally (po) via consecutive injections or gavages (six daily or twelve twice daily) starting at 24 hours post contamination at the following four selected doses: 30 μmol/kg ip, 150 μmol/kg po, 300 μmol/kg po, and 600 μmol/kg po (equivalent to respective approximate human doses range of […], using the accepted conversion system of mouse doses into human equivalent doses—HED—based on body surface area). Oral doses also included the permeability enhancer selected during formulation development work.
• Challenge isotope: ^238Pu • Challenge dose: 25 nCi (i.e., approximately 0.8 μCi/kg) • Route of contamination: Intravenous (iv) tail-vein • Route of treatment: Intraperitoneal Injection (ip) or Oral (po) • Frequency of treatment: Multiple (once- or twice-daily for 6 days) doses, starting 24 hr postcontamination • Treatment dose calculation: Dose calculations (mg/kg or μmol/kg) for the decorporation agent were based on the individual body weight measured after contamination. • Study Duration: 11 days, in-life
c. […] Test article and control dose formulations were prepared within 1 day of dose administration, by weighing out the appropriate amount of test article, dispersing in vehicle. For ip solutions, the test article was used alone, while for oral suspensions, a mixture of test article and excipient (90:10, w:w) was used. The pH was adjusted to 7.0-7.4 for ip administration and 5.0-5.5 for oral administration with sterile NaOH. Dose formulations were prepared at room temperature and filter-sterilized. • Storage: 2-8° C.; refrigerated; protected from light. • Characterization: The concentration of each test article formulation was verified by high-performance liquid chromatography-mass spectrometry. • Test Article Handling: Test, reference, and control article formulations were handled with the use of eye protection, gloves, and a protective laboratory coat. • Correct Dose Assurance: The test article was weighed with calibrated balances. The administration of each dose formulation was properly documented, and the amount administered to each animal recorded.
e. Experimental Procedures (In-Life Evaluations and Euthanasia) • Contamination: Single administration by intravenous (iv) tail-vein injection (0.2 mL injection volume) under isoflurane anesthesia. Three standard 0.2 mL injections were performed into polyethylene bottles and pre-loaded with aliquots of concentrated nitric acid on each injection day. Six female and six male mice were culled for necropsy 1 hr post-contamination and were used as standards. A11 standards were processed and counted together with the final samples to allow verification of the contamination dose. • Dose Administration: Single administration by intraperitoneal injection (ip) or oral gavage (po) under isoflurane anesthesia. • Mortality/Morbidity: Assessed at least once daily. • Clinical Observations: Recorded once daily (4 hr post-dose on day of treatment), or more often as clinical signs warranted. […]

[1] = female animals, D-7 necropsy, individual animals, listed as 3,4,3-LI(1,2-HOPO)
[2] = female animals, D-11 necropsy, individual animals, listed as 3,4,3-LI(1,2-HOPO)
[3] = male animals, Day 7 necropsy, animal group B, listed as 3,4,3-LI(1,2-HOPO)

In the case of `O=C(NCCCN(CCCCN(CCCNC(=O)c1cccc(=O)n1O)C(=O)c1cccc(=O)n1O)C(=O)c1cccc(=O)n1O)c1cccc(=O)n1O` [3,4,3-L1(1,2-HOPO)], the “% Recovered Dose-Female Animals-Urine per Day-Day 11 Necropsy” value (animal group M, day 11, female mice, listed as 3,4,3-LI(1,2-HOPO)) is reported as 0.44% and 0.82% and 0.63% and 0.58% and 0.53% and 1.12% and 0.91% and 0.93%, the 238Pu excretion path (female and male mice) is reported as “predominantly through feces” and the adverse effect (female and male mice, parenteral or oral, all dose levels) is reported as “No adverse effect”. For the same molecule, the “% Recovered Dose - Kidney” value (female animals, D-7 necropsy, individual animals (ID = group letter + number), dose/regimen of group not given, listed as 3,4,3-LI(1,2-HOPO)) was 0.27% (2×) and 0.15% and 0.24% (2×) and 0.17% and 0.31% and 0.14% and 0.09% and 0.28% (2×) and 0.43% and 0.12% and 0.21% and 0.22% (2×), the “% Recovered Dose - ART” value [1] was 1.01% and 1.36% and 1.12% (2×) and 1.30% and 1.21% and 1.29% and 1.37% and 1.20% and 0.98% (2×) and 1.39% and 1.24% (2×) and 1.16% and 1.59% and the “% Recovered Dose - Combined Body” value [1] was 34.79% and 38.75% and 40.32% and 37.43% and 36.37% and 39.78% and 31.50% and 26.07% and 36.12% and 35.98% and 41.72% and 33.15% and 35.58% and 25.26% and 33.24% and 36.43%. The “% Recovered Dose - Combined Excreta” value [1] was 65.21% and 61.25% and 59.68% and 62.57% and 63.63% and 60.22% and 68.50% and 73.93% and 63.88% and 64.02% and 58.28% and 66.85% and 64.42% and 74.74% and 66.76% and 63.57%, the “% Recovered Dose - Liver” value [1] was 8.04% and 11.52% and 14.05% and 17.71% and 5.50% and 9.28% and 7.15% and 5.47% and 15.03% and 5.40% and 15.12% and 5.35% and 15.19% and 6.77% and 11.56% and 16.40% and the “% Recovered Dose - SKEL” value [1] was 23.83% and 24.03% and 23.40% and 16.40% and 28.04% and 26.98% and 21.55% and 17.57% and 18.05% and 27.21% and 23.15% and 24.86% and 17.48% and 15.65% and 19.07% and 16.03%. For the same molecule, the “% Recovered Dose - SOFT” value [1] was 1.63% (2×) and 1.69% and 1.50% and 1.75% and 1.54% and 2.00% and 1.36% and 1.57% and 1.61% and 2.12% and 1.58% and 1.55% and 1.38% and 1.41% and 2.13%, the “% Recovered Dose - Total Feces” value [1] was 37.37% and 25.66% and 41.03% and 28.59% and 40.61% and 26.74% and 36.25% and 39.09% and 25.39% and 34.86% and 39.63% and 37.46% and 28.91% and 37.33% and 32.34% and 24.62% and the “% Recovered Dose - Total Urine” value [1] was 27.84% and 35.60% and 18.65% (2×) and 33.98% and 23.02% and 33.48% and 32.25% and 34.83% and 38.49% and 29.16% and 29.39% and 35.51% and 37.41% and 34.43% and 38.95%. The “% Recovered Dose - Combined Body” value [2] was 17.98% and 75.50% and 20.85% and 19.27% and 21.23% and 20.95% and 24.13% and 19.99% and 25.13% and 24.87% and 27.98% and 26.74% and 30.36% and 31.29% and 29.30% and 29.18% and 27.61% and 23.71% and 21.16% and 25.90% and 28.33% and 29.52% and 30.59% and 27.44%, the “% Recovered Dose - Combined Excreta” value [2] was 82.02% and 24.50% and 79.15% and 80.73% and 78.77% and 79.05% and 75.87% and 80.01% and 74.87% and 75.13% and 72.02% and 73.26% and 69.64% and 68.71% and 70.70% and 70.82% and 72.39% and 76.29% and 78.84% and 74.10% and 71.67% and 70.48% and 69.41% and 72.56% and the “% Recovered Dose - GI Tract” value [2] was 0.65% and 1.84% and 0.77% and 0.48% and 0.55% and 0.52% and 0.62% and 0.54% and 0.97% and 0.80% (2×) and 1.10% and 0.99% and 0.95% and 1.50% and 0.96% and 0.87% and 0.70% and 0.91% and 0.68% and 0.50% and 1.19% and 0.81% and 1.03%. The “% Recovered Dose - Kidney” value [2] was 0.09% and 1.35% and 0.13% (2×) and 0.08% (2×) and 0.18% and 0.14% (4×) and 0.05% and 0.11% (2×) and 0.25% and 0.16% (2×) and 0.26% and 0.12% and 0.20% (2×) and 0.15% and 0.10% (2×), the “% Recovered Dose - Liver” value [2] was 4.74% and 36.77% and 4.16% and 1.79% and 1.96% and 2.48% and 3.25% and 1.16% and 8.54% and 3.78% and 4.98% and 7.97% and 5.01% and 6.46% and 4.53% and 6.86% and 4.50% and 3.03% and 5.22% and 3.96% and 5.73% and 8.43% and 7.92% and 6.01% and the “% Recovered Dose - Soft Tissue” value [2] was 1.29% (2×) and 3.31% and 0.99% and 1.94% (2×) and 1.49% and 1.62% and 1.17% and 1.66% and 1.55% and 2.66% and 2.10% and 2.26% and 1.73% and 2.18% and 2.32% and 2.21% and 2.05% and 2.16% and 2.59% and 1.56% and 1.48% and 2.11%. For the same molecule, the “% Recovered Dose - Total Bone” value [2] was 11.21% and 32.22% and 14.80% and 15.63% and 16.61% and 16.38% and 18.50% and 17.05% and 13.83% and 18.64% and 18.99% and 15.53% and 21.88% and 21.46% and 21.52% and 18.92% and 19.89% and 17.79% and 12.72% and 18.57% and 20.43% and 17.82% and 20.28% and 18.12%, the “% Recovered Dose - Total Feces” value [2] was 38.27% and 13.76% and 41.57% and 45.81% and 39.56% and 45.73% and 37.01% and 44.68% and 36.23% and 51.20% and 30.57% and 33.16% and 39.74% and 37.31% and 37.09% and 35.70% and 28.28% and 37.36% and 36.24% and 36.31% and 36.22% and 32.51% and 34.94% and 35.74% and the “% Recovered Dose - Total Urine” value [2] was 43.75% and 10.74% and 37.58% and 34.92% and 39.21% and 33.32% and 38.85% and 35.33% and 38.64% and 23.93% and 41.45% and 40.10% and 29.89% and 31.40% and 33.61% and 35.12% and 44.11% and 38.93% and 42.60% and 37.79% and 35.45% and 37.97% and 34.47% and 36.82%. For the same molecule, the “% Recovered Dose - Feces per Day - Day 2” value (female animals, Day 7 necropsy, Day 2, listed as 3,4,3-LI(1,2-HOPO)) was 13.36% and 8.81% and 9.40%, the “% Recovered Dose - Feces per Day - Day 3” value (female animals, Day 7 necropsy, Day 3, listed as 3,4,3-LI(1,2-HOPO)) was 5.58% and 1.92% and 3.39% and the “% Recovered Dose - Feces per Day - Day 4” value (female animals, Day 7 necropsy, Day 4, listed as 3,4,3-LI(1,2-HOPO)) was 3.61% and 2.93% and 2.98%. For the same molecule, the “% Recovered Dose - Feces per Day - Day 5” value (female animals, Day 7 necropsy, Day 5, listed as 3,4,3-LI(1,2-HOPO)) was 2.85% and 2.91% and 2.16%, the “% Recovered Dose - Feces per Day - Day 6” value (female animals, Day 7 necropsy, Day 6, listed as 3,4,3-LI(1,2-HOPO)) was 1.63% and 2.50% and 1.90% and the “% Recovered Dose - Feces per Day - Day 7” value (female animals, Day 7 necropsy, Day 7, listed as 3,4,3-LI(1,2-HOPO)) was 1.39% and 1.95% and 1.75%. For the same molecule, the “increase in total 238Pu excretion compared to the control groups” value (female, 6 daily oral treatments, 600 μmol/kg, 11 days post-contamination) was “up to 143%”, the “tissue content of 238Pu compared to saline control group” value (female, all analyzed tissues, all dosing regimens) was “large reductions” and the “full body content of 238Pu compared to saline control groups” value (female, all treated groups) was “significant reductions”. The “decrease in body burden compared to the control groups” value (female, once-daily oral 600 μmol/kg, 11 days post-contamination) was “up to 45%”, the “decorporation efficacy relative to parenteral DTPA” value (female, oral once-daily 300 μmol/kg) was “equivalent to that of parenteral treatment with DTPA” and the 238Pu elimination enhancement (female, oral twice-daily 150 and 300 μmol/kg or once-daily 300 and 600 μmol/kg, 7 days post-contamination) was “significant”. The “% Recovered Dose Urine per Day, Day 1” value [3] was 20.65% and 15.62% and 19.53% and 17.05% and the “% Recovered Dose Urine per Day, Day 2” value [3] was 2.02% and 2.81% and 2.18% and 1.96%.
